Test results from US5462927A, “Peptides aiding nerve regeneration” (The Administrators of the Tulane Educational Fund, priority 1992, dated 1995).
Read-outs that look alike come from different tables or passages of the source. Square brackets hold non-standard residues; d marks the D form. Peptide text beside a SMILES is read from it.

Tests used:
[1] = system: crushed peroneal nerve; test: Walking test (locomotor pattern, toespread) after peroneal nerve crush; type: in vivo, rat
Description: The effect of BIM-22015 regeneration of the crushed peroneal nerve in the rat was assessed using both morphological and physiological studies, as follows. Both locomotor pattern and endplate morphology during the early stages of crushed nerve regeneration were assessed after treatment with BIM-220150 Adult Sprague-Dawley male rats (Taconic Farms) were maintained at 25° C. on a 12 hour light and a 12 hour dark cycle and were supplied with standard rat chow and water ad lib. All surgery was performed under anesthesia with 8% chlorohydrate (0.6 ml/100 g I.P.). Denervation was accomplished using a #5 Dumont forceps with a uniformly filed tip to crush the peroneal nerve. This crush produced a 1 mm wide lesion just proximal to the EDL (extention digitarum longus) muscle. The wound was closed with surgical staples. Following surgery, the animal was immediately administered saline or BIM-22015 in one of the following dosages: (1) 0.9% saline, (2) 10.0 ug BIM-22015, (3) 5.0 ug BIM-22015, (3) 1.0 ug BIM-22015, or (4) 0.1 ug BIM-22015 (per animal). Administration continued once every 48 hours for 5 days; on day 5, the rats were killed and tissues taken for morphological analysis. All injections and surgeries occurred between 10:00 and 12:00 noon.
Locomotor pattern was tested by measuring the walking pattern of the animal. The animal was allowed to walk up a 20° inclined platform. The track was well-lit by fluorescent tubes and a dark box was placed at the end of the track. This dark and light differences was used to entice the animal to walk up the track. […] The distance between the first and fifth digit was determined using a Manostat mechanical caliper (type 6911) with accuracy of ±0.005 mm0 The contralateral foot was used as a control to negate the size differences in individual animals. The Student T test was used to determine the statistical differences, and data were expressed as means of the six sharpest toespreads and the standard error of the mean (using 95% confidence formula), standard deviation, and variances.

[2] = system: sectioned sciatic nerve; common extensor muscle of the finger; test: Muscle weight after sciatic nerve section; type: in vivo, rat; conditions: for Muscle weight Normalized to Mean Animal Weight: 35d. p.o.
[3] = system: sectioned sciatic nerve; common extensor muscle of the fingers; type: in vivo, rat; conditions: for Muscle Tetnus: Fatigue / Muscle Tetnus: Muscle Strength / Muscle Tetnus: Muscle Strength Normalized to Muscle Weight / Muscle Tetnus: Speed of Contraction / Muscle Tetnus: Speed of Relaxation / Tetanic Strength/Single Pulse Strength: 35d. p.o.p.
[4] = system: sectioned sciatic nerve; common extensor muscle of the finger; test: Characteristics of a single pulse of the common extensor muscle after sciatic nerve section; type: in vivo, rat; conditions: for Single Pulse: Contraction Time / Single Pulse: Half-Relaxation Time / Single Pulse: Latence / Single Pulse: Muscle Strength Normalized to Muscle Weight / Single Pulse: Speed of Contraction / Single Pulse: Speed of Relaxation / Single Pulse: Strength: 35d. p.o.p.
[5] = system: sciatic nerve after transection and end-to-end suture; test: Morphometry after section and suture of sciatic nerve; type: in vivo, rabbit
[6] = system: crushed sciatic nerve; test: Sensorimotor function test (sciatic nerve regeneration assay, foot-flick response to thermal pain); type: in vivo, rat; conditions: s.c. every 24 hr for approximately 20-25 days; head prints only 'μG/24 HRS'; vs 0.9% NaCl control
Description: Female, Sprague-Dawley rats (Charles River Breeding Labs) were used at an age of 7-8 weeks (120-140 g). Under ether anesthesia, the right sciatic nerve was carefully exposed and crushed with constant pressure, hemostatic forceps for 30 sec prior to closure and suturing of the incision. After surgery, the animals were randomly assigned to treatment groups of 10. The test peptides were administered s.c. in 0.9% NaCl in a vol of 0.1 ml. NaCl (0.9%) served as the control. Injections were started immediately after surgery and given every 24 hr thereafter for approximately 20-25 days. The criterion of sciatic nerve regeneration was based on the recovery of the foot-flick response to thermal pain. Beginning 48 hr after surgery, the rats were tested five days a week for the ability to withdraw, from a heat source, the paw innervated by the crushed nerve. All sensorimotor testing was performed between 1:00 and 3:00 p.m. Specifically, the rat was immobilized by wrapping in a towel, and the sole of the lesioned limb was placed over the aperture of a modified d'Amour apparatus. The time required to withdraw the foot was recorded to the nearest 0.1 of sec using a digital stopwatch. If no response occurred by 5 sec, the test was terminated to avoid tissue damage. The observe measuring the foot-flick response was blind to the treatment group being tested. All animals were acclimatized to the testing procedure prior to surgery. Baseline values were obtained by determining the response time for the unlesioned limb.

[7] = Group 2: Tissue col 10.0 μg/0.5 ml (topical)
[8] = Group 3: Tissue col 1.1 μg/10.5 ml (topical)
[9] = Group 4: s.c. 5 μg 1 kg/day (18 days)
[10] = Group 3 (topical in tissucol, lower dose)
[11] = Group 4 (s.c. 5ug.kg.day for 18 days)
[12] = 1 cm distal to the transection, 32 days p.op., 1 μg/kg per day s.c.
[13] = Region of the Transection, 32 days p.op., 1 μg/kg per day s.c.
[14] = Region of the Transection, 96 days p.op., 1 μg/kg per day s.c.

C[C@@H](N)C(=O)N[C@@H](CCC(N)=O)C(=O)N[C@@H](Cc1ccc(O)cc1)C(=O)N[C@@H](Cc1ccccc1)C(=O)N[C@@H](CCCNC(=N)N)C(=O)N[C@@H](Cc1c[nH]c2ccccc12)C(=O)NCC(N)=O [BIM-22015, D--Ala--Gln--Tyr--Phe--Arg--Trp--Gly--NH2] (H-[dA]QYFRWG-NH2)
recovery rate of locomotion (walking test) ([1]; 0.1 μg per animal, once every 48 hours, days 3-5 after surgery, not statistically significant): very consistent upward recovery rate | optimal dosage (walking test) ([1]; dosages 0.1-10.0 ug per animal compared): 0.1 µg | recovery rate of locomotion (walking test) ([1]; the other dosages (above 0.1 μg) vs saline control): outperformed the saline control animal but only by a slight margin | Muscle Weight 35d. p.o. [2, 7]: 67.9 µg | Muscle weight Normalized to Mean Animal Weight [2, 7]: 0.211 | Muscle Weight 35d. p.o. [2, 8]: 59.7 µg | Muscle weight Normalized to Mean Animal Weight [2, 8]: 0.212 | Muscle Weight 35d. p.o. [2, 9]: 73.1 µg | Muscle weight Normalized to Mean Animal Weight [2, 9]: 0.226 | improvement of muscle weight normalized to mean animal weight over the control group 1 ([2]; group 4 (s.c. administration), not statistically significant): 15% | improvement of muscle weight normalized to mean animal weight over the control group 1 ([2]; groups 2 and 3 (topical in tissucol)): little improvement | effect on muscle measurements by route of administration ([2]; topical administration (groups 2 and 3)): largely ineffective | Muscle Tetnus: Fatigue ([3]; Group 2 (topical in tissucol)): 73,80% | Muscle Tetnus: Muscle Strength ([3]; Group 2 (topical in tissucol)): 61,83 g | Muscle Tetnus: Muscle Strength Normalized to Muscle Weight ([3]; Group 2 (topical in tissucol)): 0,91 g/ug | Muscle Tetnus: Speed of Contraction ([3]; Group 2 (topical in tissucol)): 2409 g/ms | Muscle Tetnus: Speed of Relaxation ([3]; Group 2 (topical in tissucol)): 2034 g/ms | Tetanic Strength/Single Pulse Strength ([3]; Group 2 (topical in tissucol)): 307,50% | Muscle Tetnus: Fatigue [3, 10]: 75,55% | Muscle Tetnus: Muscle Strength [3, 10]: 51,55 g | Muscle Tetnus: Muscle Strength Normalized to Muscle Weight [3, 10]: 0,84 g/ug | Muscle Tetnus: Speed of Contraction [3, 10]: 1737 g/ms | Muscle Tetnus: Speed of Relaxation [3, 10]: 884 g/ms | Tetanic Strength/Single Pulse Strength [3, 10]: 343,00% | Muscle Tetnus: Fatigue [3, 11]: 72,12% | Muscle Tetnus: Speed of Contraction [3, 11]: 5507 g/ms | Muscle Tetnus: Speed of Relaxation [3, 11]: 4226 g/ms | Tetanic Strength/Single Pulse Strength [3, 11]: 347,12% | fatigability of the muscle ([3]; rat, in vivo): no effect | improvement of muscle strength over control group 1 (column 2, Table 3) ([3]; rat, in vivo, sc): 30% | Single Pulse: Contraction Time ([4]; Group 2 (topical in tissucol)): 28.86 ms | Single Pulse: Half-Relaxation Time ([4]; Group 2 (topical in tissucol)): 64.69 ms | Single Pulse: Latence ([4]; Group 2 (topical in tissucol)): 9.93 ms | Single Pulse: Muscle Strength Normalized to Muscle Weight ([4]; Group 2 (topical in tissucol)): 0.30 g/µg | Single Pulse: Speed of Contraction ([4]; Group 2 (topical in tissucol)): 2419 g/ms | Single Pulse: Speed of Relaxation ([4]; Group 2 (topical in tissucol)): 514 g/ms | Single Pulse: Strength ([4]; Group 2 (topical in tissucol)): 20.03 g | Single Pulse: Contraction Time [4, 10]: 16.37 ms | Single Pulse: Half-Relaxation Time [4, 10]: 40.93 ms | Single Pulse: Latence [4, 10]: 7.65 ms | Single Pulse: Muscle Strength Normalized to Muscle Weight [4, 10]: 0.25 g/µg | Single Pulse: Speed of Contraction [4, 10]: 2939 g/ms | Single Pulse: Speed of Relaxation [4, 10]: 593 g/ms | Single Pulse: Strength [4, 10]: 14.96 g | Single Pulse: Contraction Time [4, 11]: 27.68 ms | Single Pulse: Half-Relaxation Time [4, 11]: 60.72 ms | Single Pulse: Latence [4, 11]: 9.48 ms | Single Pulse: Speed of Contraction [4, 11]: 2420 g/ms | Single Pulse: Speed of Relaxation [4, 11]: 635 g/ms | Single Pulse: Strength [4, 11]: 26.45 g | improvement of muscle strength over control group 1 (column 1, Table 4) ([4]; Group 4 (s.c.), p=0.05): 28% | improvement of speed of muscle contraction compared to group 1 (column 3, Table 4) ([4]; group 4 (s.c.), p=0.01): 300% | speed of relaxation compared to group 1 (column 4, Table 4) ([4]; printed as group 5): dramatically improved | light microscopic evaluation of semi-thin sections, control vs experimental groups ([5]; 0.5 μm sections after severance and end-to-end suture): did not disclose definite differences | growth of the myelin sheath in treated animals vs controls ([5]; 1 cm distal of the transection, period from the 32nd to the 96th day): almost twice as fast | Mean values of axon diameter [5, 12]: 1.545 μm | Mean values of myelin sheath thickness [5, 12]: 0.310 μm | Mean values of axon diameter ([5]; 1 cm distal to the transection, 96 days p.op., 1 μg/kg per day s.c.): 2.078 μm | Mean values of axon diameter [5, 13]: 1.888 μm | Mean values of myelin sheath thickness [5, 13]: 0.398 μm | Mean values of axon diameter [5, 14]: 2.335 μm | Mean values of myelin sheath thickness [5, 14]: 0.551 μm | Number of myelinated axons/0.004 sq. mm [5, 14]: 62 /0.004 sq. mm | statistically significant effect on the axon diameter ([5]; on the 32nd or on the 96th day p.op.): could not be demonstrated | % Reduction of Recovery Time [6]: 28%
